Assay results published in patent US10556929B2, “Cytotoxic T lymphocyte inducing immunogens for prevention treatment and diagnosis of dengue virus infection” (Emergex Vaccines Holdings Limited, priority 2011, dated 2020).

How the values were obtained:
Assay type in all cases: cell-based, human
[1] = test system: JY and HepG2 cells infected with DV2 and DV3 virus; experiment: IFN-γ ELISpot, CTL vs DV2/DV3-infected JY and HepG2 cells; conditions: FIG. 3E-F
Description: (§1) Dengue virus serotype 2 (DV2) (strain-16681), as well as DV type 3 (DV3) (strain-16562), were propagated in Vero cells and collected at 4 days post infection (dpi). Titer was determined using a plaque assay in Vero cells. Thai isolates of all four DV serotypes were propagated. All infections were carried out at five MOI for lhr, after which, virus was removed and cells were incubated for additional 48-72 hrs.
(§2) Heparinized blood from healthy HLA-A2+ donors was purchased from Research Blood Components, LLC (Brighton, Mass.). Peripheral blood mononuclear cells (PBMC) were purified using differential centrifugation following standard methods. PBMC were used to generate peptide specific CTL as described previously (James S. Testa, et al. J Infect Dis 205(4): 647-655. (2012)).
(§3) Antigen stimulated interferon-γ (IFN-γ) release as a measure of CTL activation was assayed using an ELISPOT assay kit (BD-Pharmingen, San Jose, Calif.) according to the manufacturer's instructions. Results are presented as the number of interferon-γ producing cells per 1E6 PBMCs. Each assay was performed with PBMC from at least three different healthy HLA-A2+ donors. Error bars represent SEM of experimental replicates.
In order to characterize the functionality of the identified DV epitopes, we generated cytotoxic T cells from HLA-A2+ healthy donors using synthetic peptides corresponding to the identified epitopes. […]

[2] = test system: T2 cells loaded with the corresponding synthetic peptide; experiment: IFN-γ ELISpot, CTL vs peptide-pulsed T2 cells; conditions: CTL from HLA-A2+ healthy donor PBMC generated with synthetic peptide, overnight ELISpot, FIG. 3A-D
Description: as §2, §3
In order to characterize the functionality of the identified DV epitopes, we generated cytotoxic T cells from HLA-A2+ healthy donors using synthetic peptides corresponding to the identified epitopes. The cultures were tested in overnight ELISpot assays to measure IFNγ release from activated CTLs. […] Next, to confirm CTL activation against DV-infected targets, JY and HepG2 cells were infected with both DV2 and DV3 virus and used as targets in CTL ELISpot assays. […] In addition, K562 cells, a known NK cell target, were used as targets to measure non-specific IFNγ secretion.

[3] = test system: HepG2 cells infected with DV1-4 Thai isolates; experiment: IFN-γ ELISpot, CTL vs HepG2 cells infected with DV1-4 Thai isolates; conditions: HepG2 infected with DV1-4 Thai isolates, FIG. 4C-F
Description: as §1, §2, §3
(§4) We tested CTLs generated against the 4 epitopes using targets infected with all four DV serotypes. We infected HepG2 cells (FIG. 4A) or JY cells (FIG. 4B) with DV1-4 Thai isolates and verified protein expression. […] In addition to HepG2 cells, we also tested professional APC JY cells, as targets.

[4] = test system: JY cells infected with DV1-4 Thai isolates; experiment: IFN-γ ELISpot, CTL vs JY cells infected with DV1-4 Thai isolates; conditions: JY infected with DV1-4 Thai isolates, FIG. 4G-J
Description: as §1, §2, §3, §4

Row | Sequence | CTL activation (IFNγ secretion) against DV-infected targets [1] | recognition of peptide-loaded targets by peptide-specific CTL (IFNγ release) [2] | activation of epitope-specific CTL against infected HepG2 targets [3] | DV serotypes of infected targets recognized by peptide-specific CTL [4] | activation of peptide-specific CTL by infected JY targets [4]
1 | VTLLCLIPTV (listed as Homo sapiens) [P2-VTL] | all DV-infected cells activated CTL to secrete IFNγ | recognize T2 cells loaded with the corresponding synthetic peptide | activated against all four serotypes, although not to the same degree | recognized only DV2-infected targets | most infected targets activate peptide-specific CTL
2 | KLAEAIFKL (listed as Homo sapiens) [P1-KLA] |  | recognize T2 cells loaded with the corresponding synthetic peptide | activated against all four serotypes, although not to the same degree | recognized only DV2-infected targets | most infected targets activate peptide-specific CTL
3 | TITEEIAVQ (listed as Homo sapiens) [P3-TIT] | all DV-infected cells activated CTL to secrete IFNγ | recognize T2 cells loaded with the corresponding synthetic peptide | activated against all four serotypes, although not to the same degree |  | most infected targets activate peptide-specific CTL
4 | NIQTAINQV (listed as Homo sapiens) [P4-NIQ] |  | recognize T2 cells loaded with the corresponding synthetic peptide | activated against all four serotypes, although not to the same degree |  | most infected targets activate peptide-specific CTL
